Measurements: patent US7223777B2, “Compounds for the management of aging-related and diabetic vascular complications, process for their preparation, therapeutic and cosmetic uses thereof” (Torrent Pharmaceuticals Ltd., priority 2001, dated 2007)

Key:
[1] = Free radical scavenging activity on ABTS radical cation; type: biochemical
Procedure: This method measures the relative ability of free radical scavenging substances to scavenge the ABTS.^+ i.e. 2,2-Azino-bis-(3-ethyl benzo thiazoline-6-sulfonate) radical cation as compared to a standard amount of standard or free radical scavengers antioxidants. Incubation of ABTS with Peroxidase (metmyoglobin) and hydrogen peroxide results in the production of radical cation ABTS.^+. This species is blue-green in colour and can be detected at 730 nm. Antioxidants or free radical scavengers in the added sample that causes suppression of the color to a degree that is proportional to their concentration.
Preparation of Buffer Solutions: • a. Phosphate Citrate Buffer (pH 5.0): 48.5 ml of 0.1M citric acid with sufficient 0.2M disodium hydrogen phosphate to produce 100 ml. • b. Phosphate Buffer Saline (PBS): Dissolve 40.0 g of NaCl, 1.0 g of KCl, 1.0 g of KH2PO4 and 3.05 g of Na2HPO4 in 1 liter milli-Q water. Dilute 200 ml of above solution to 1 liter with milli-Q water (pH 7.4–7.6).
Preparation of ABTS Stock Solution (2 mM): • 1 tablet (10 mg) was dissolved in phosphate citrate buffer (pH 5.0) to give a 2 mM solution.
Preparation of Horse Radish Peroxidase Working Solution: • 0.1 mg was dissolved in 10 ml of phosphate buffer saline, 1 ml of this solution was diluted to 100 ml with PBS.
Preparation of Hydrogen Peroxide (1.08 mM) Solution: • 12 μl of Hydrogen Peroxide (30% w/v) was diluted to 100 ml with PBS.
Preparation of Drug Solutions: • 0.1 mM of stock solution of the drug was prepared which was serially diluted in PBS to get 0.05 mM, 0.025 mM and 0.0125 mM solutions.
Preparation of ABTS Radical Stock Solution: • To 2 ml of ABTS stock solution, 1 ml of horseradish Peroxidase working solution was added. • As soon as 2 ml of Hydrogen peroxide solution was added to the above solution, blue-green colour of the ABTS radicals appeared. This solution was incubated at 30° C. for 30 min in order to ensure the completion reaction. Make up the volume to 10 ml with PBS.
Preparation of Control Solution: • 900 μl of ABTS radical stock solution were added to an eppendorf tube. To it were added 100 μl of PBS solution.
Preparation of Test Solution: • 900 μl of ABTS radical stock solutions were added to different eppendorf tubes. To it were added 100 μl of various concentrations of drug solution.
Measurement of Absorbance (O.D): • The absorbance of control and test samples was recorded immediately at 730 nm taking PBS as blank.
Calculation: • The percent antioxidant activity was calculated according to the formula: % Antioxidant activity=100−[O.D of test sample/O.D of control×100]

AGE-BSA = molecular target: T1, AGE-BSA (Bos taurus, UniProt P02769); test: In-vitro screening for AGE-breaking activity (AGE-BSA incubated with compound; ELISA / gel permeation chromatography); type: biochemical, bovine; details: 37° C., 24 hours
T1 construct: Bovine serum albumin (fraction V) (BSA); from tissue; host or cells: bovine serum (fraction V); own knowledge: fraction V is the albumin fraction of plasma/serum
T1 sequence (P02769 25-607): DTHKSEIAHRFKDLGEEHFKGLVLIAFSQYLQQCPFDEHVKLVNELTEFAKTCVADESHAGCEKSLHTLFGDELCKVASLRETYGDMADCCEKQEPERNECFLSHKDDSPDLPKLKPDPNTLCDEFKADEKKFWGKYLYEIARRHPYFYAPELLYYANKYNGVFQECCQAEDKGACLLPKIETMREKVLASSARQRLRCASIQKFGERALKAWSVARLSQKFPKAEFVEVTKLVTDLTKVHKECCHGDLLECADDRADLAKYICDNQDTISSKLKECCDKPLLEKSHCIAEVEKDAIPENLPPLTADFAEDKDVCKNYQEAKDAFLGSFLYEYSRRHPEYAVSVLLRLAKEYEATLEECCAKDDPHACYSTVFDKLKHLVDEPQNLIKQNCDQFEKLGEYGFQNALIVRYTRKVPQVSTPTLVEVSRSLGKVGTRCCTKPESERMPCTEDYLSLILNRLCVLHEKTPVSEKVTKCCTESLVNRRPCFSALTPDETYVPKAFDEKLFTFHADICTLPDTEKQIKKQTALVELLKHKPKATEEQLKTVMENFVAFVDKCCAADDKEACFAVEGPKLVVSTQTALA
Procedure: Fluorescence was used as the criteria to monitor the increased AGE formation.
160 mg/ml of protein, bovine serum albumin, BSA and 1.6M glucose sugar were dissolved in phosphate buffered saline, PBS. Sodium azide was added at 0.02% concentration as a preservative. The solution was filtered asceptically through a […] filter and kept for aging at 37° C. for 16 weeks. After 16 weeks the solution was dialyzed against PBS, aliquoted and stored at −20° C.
To determine the AGE breaking activity, 10 μg/ml of the 16 weeks AGE-BSA was incubated with different concentrations of the test compounds at 37° C. for 24 hours and AGE breaking activity of the test compounds by ELISA was determined.
• 1. Different concentrations of 16 weeks AGE-BSA were coated on a microtiter plate as standard. Each concentration is coated in triplicates. • 2. The test samples were coated on microtiter plate at a concentration of 5 ng. to 20 ng per well in triplicates. • 3. The plate was incubated at 37° C. for one hour. • 4. After incubation the plate was washed with PBST (PBS with 0.05% Tween 20). • 5. Blocking with 5% skimmed milk in PBS at 37° C. for one hour was done. • 6. The plate was washed with PBST. • 7. Primary antibody against AGE-BSA was added and the plate is incubated at 37° C. for one hour. • 8. The plate was washed with PBST. • 9. Secondary antibody anti rabbit HRPO (Horse-Radish Per Oxidase) conjugate was added and the plate is incubated at 37° C. for one hour. • 10. The plate was washed with PBST. • 11. Colour development with OPD (orthophenylenediamine dihydrochloride) and hydrogen peroxide was done. • 12. OD (optical density) at (450 nm reading –620 nm reading) was measured after incubation at 37° C. for 15 minutes with Microplate ELISA Reader.
The breaker activity of the compounds were determined by the following formula:
[formula] OD450-620Control=Absorbance of 20 ng AGE-BSA after incubation at 37° C. for 24 hours without test compound. OD450-620Test=Absorbance of 20 ng AGE-BSA after incubation at 37° C. for 24 hours with required concentration of test compound.
Gel Permeation Chromatography based method was used to determine AGE breaking activities of the compounds.
Separation by Gel Permeation Chromatography (GPC) depends on differences in the size, more precisely the hydrodynamic volume, of the proteins in a sample. […] The pores of a column particle are differentially accessible to smaller particles, depending on their size. This volume of the column is called (V1). The total accessible volume (Vt) is the sum of the volume outside the particles (V0) and the volume accessible inside the particles (V1): Vt=V0+Vi Therefore, in a typical Gel Permeation Chromatography (GPC) run, high molecular weight molecules elute at a lower retention time whereas lower molecular weight molecules are retained for longer time. For the purpose of quantification, the area under the curve for the respective molecule is recorded. The same principle has been applied in the in vitro screening of the molecules of instant invention. Highly cross-linked Advanced Glycosylated Endproducts (AGE) were prepared in vitro by incubating Bovine Serum Albumin (BSA) with glucose for a period of 16 weeks. […] The reduction in the area of AGE-BSA incubated in the presence of AGE breaker as compared to that of control AGE BSA (incubated in absence of AGE breaker) gives an estimate of the AGE breaker activity of the drug. In order to check the non-specific activity of the molecule, a similar experiment was repeated with BSA as well. Methodology:
A known concentration of 16-week AGE-BSA was incubated with and without a predetermined concentration of the drug at 37° C. for 24 hours in clean transparent glass test tubes. The solution without drug served as the control and the solution containing the drug was treated as the test sample.
Gel permeation chromatography was performed on equal volumes of control AGE-BSA preparation and solution of AGE-BSA treated with drug. […]

[2] = system: Maillard reaction in-vitro (BSA, ribose); test: Test for AGE inhibiting activity (Maillard reaction in-vitro, BSA + ribose, fluorescence); type: biochemical, bovine; details: 37° C., 7 days
Procedure: The following method was used to determine the inhibitory effect of the test compounds on Maillard reaction in-vitro. This method is adopted from U.S. Pat. No. 5,514,676 and European Patent No. 0 339 496 A2.
A solution of Bovine Serum Albumin (BSA), ribose and test compound was prepared in Phosphate Buffer Saline (PBS, pH 7.4) so as to have final concentration of BSA and ribose at 10 mg/ml and 500 mM respectively. Addition of compound was done in aseptic conditions. Sodium azide (0.02%) was also added in this solution in order to prevent microbial growth. A separate tube containing BSA, ribose and sodium azide in the same concentration and buffer as above, but without any test compound, was also incubated as positive control. After incubation at 37° C. for 7 days, 40 micro liter sample from each tube was removed and diluted with PBS to have final concentration of BSA at 1 mg/ml. The fluorescence of all the samples was measured at Excitation Maximum of […] and the Emission Maximum of […] using f-MAX Fluorimeter (Molecular Device, USA). In order to study the effect of test compound on fluorescence, freshly prepared compound solution was mixed with previously incubated positive control (i.e. BSA+ribose), so as to achieve same concentration of all the components as that of test samples.
The percent inhibition of test compound was measured as follows:
[formula] Where F3=Fluorescence of BSA+ribose+compound, F4 is fluorescence of incubated (BSA+ribose)+freshly added test compound.

Compound | Relative Free Radical Scavenging Activity (%) on ABTS ([1]; 12.5 μM) | Relative Free Radical Scavenging Activity (%) on ABTS ([1]; 25.0 μM) | Relative Free Radical Scavenging Activity (%) on ABTS ([1]; 50.0 μM) | Relative Free Radical Scavenging Activity (%) on ABTS ([1]; 100.0 μM) | % Breakage (AGE-BSA; 10 mM compound) | % Inhibition (Day 7) ([2]; 10 mM compound) | % Inhibition (Day 7) ([2]; 2.5 mM compound) | % Breakage (AGE-BSA; 5 mM compound) | % Inhibition (Day 7) ([2]; 1.25 mM compound) | % Inhibition (Day 7) ([2]; 5 mM compound)
1-(2-Thien-2′-yl-2-oxoethyl)-3-[(1-cyclohexyl-3-(3,5-dimethylpyrazol-1-yl)methyl)pyrazol-5-yl]pyridinium chloride [Compound 35] | 28.27% | 39.78% | 58.34% | 74.36% | 66.66% | 73.8% |  |  |  | 
Cc1cc(C)n(Cc2cc(-c3ccc[n+](CC(=O)c4cccs4)c3)n(-c3ccccn3)n2)n1.[Br-] [Compound 6, 1-(2-Thien-2′-yl-2-oxoethyl)-3-[3{(3,5-dimethylpyrazol-1-yl)methyl-1-(2-pyridyl)}pyrazol-5-yl]pyridinium bromide] | 21.99% | 40.56% | 61.68% | 81.04% |  | 66% |  |  |  | 
O=C(C[n+]1cccc(-c2cc(-c3ccc[n+](CC(=O)c4cccs4)c3)[nH]n2)c1)c1cccs1.[Br-].[Br-] [Compound 10, 3,5-Bis-[1-(2-thien-2′-yl-2-oxoethyl)-pyridinium-3-yl]-pyrazole dibromide] | 41.01% | 72.97% | 85.75% | 87.04% |  |  | 75% |  |  | 
O=C(C[n+]1cccc(-c2cc(Cc3ccccc3)nn2-c2ccccc2)c1)c1cccs1.[Cl-] [Compound 11, 1-(2-Thien-2′-yl-2-oxoethyl)-3-[(1-phenyl-3-phenylmethyl)pyrazol-5-yl]-pyridinium chloride] | 26.78% | 45.74% | 70.61% | 86.46% |  |  |  | 76.84% | 32.9% | 
Cc1cc(C)n(Cc2cc(-c3ccc[n+](CC(=O)c4cccs4)c3)n(-c3ccccc3)n2)n1.[Cl-] [Compound 13] | 23.58% | 41.78% | 64.01% | 82.54% | 81.05% | 57% |  |  |  | 
Cc1cc(C)n(Cc2cc(-c3ccc[n+](CC(=O)c4ccccc4)c3)[nH]n2)n1.[Cl-] [Compound 17, 1-(2-Phenyl-2-oxoethyl)-3-[(3-(3,5-dimethylpyrazol-1-yl)methyl)pyrazol-5-yl]-pyridinium chloride] | 28.34% | 54.43% | 83.56% | 94.81% | 52.27% |  | 57.43% |  |  | 
O=C(C[n+]1cccc(-c2cc(COc3ccccc3)nn2-c2ccccc2)c1)c1cccs1.[Cl-] [Compound 29, 1-(2-Thien-2′-yl-2-oxoethyl)-3-[(1-phenyl-3-phenoxymethyl)pyrazol-5-yl]pyridinium chloride] | 31.82% | 46.84% | 58.84% | 55.22% |  |  |  |  |  | 55.22%
